Results: patent US10550105B2 (Ribon Therapeutics Inc., priority 2018, dated 2020)

target: PARP7 (Homo sapiens (Human), UniProt Q7Z3E1); test: Enzymatic assay for inhibition of PARP7: TR-FRET displacement of biotinylated Probe A from the TIPARP active site; type: binding; conditions: Table A-1
Protocol: 20 nL of a dose response curve of each test compound was spotted in black 384-well polystyrene proxiplates (Perkin Elmer) using a Mosquito (TTP Labtech). […] Reactions were incubated at 25° C. for an additional 30 min, then read on an Envision platereader equipped with a LANCE/DELFIA top mirror (Perkin Elmer) using excitation of 320 nm and emission of 615 nm and […] with a 90 μs delay. The ratio of the 665/615 nm emission were calculated for each well to determine the amount of complex of TIPARP and Probe A in each well. […] The Hill Coefficient is normally allowed to float but may also be fixed at 1 in a 3-parameter fit. Y is the % inhibition and x is the compound concentration.

Sequence of PARP7 (Q7Z3E1 whole entry): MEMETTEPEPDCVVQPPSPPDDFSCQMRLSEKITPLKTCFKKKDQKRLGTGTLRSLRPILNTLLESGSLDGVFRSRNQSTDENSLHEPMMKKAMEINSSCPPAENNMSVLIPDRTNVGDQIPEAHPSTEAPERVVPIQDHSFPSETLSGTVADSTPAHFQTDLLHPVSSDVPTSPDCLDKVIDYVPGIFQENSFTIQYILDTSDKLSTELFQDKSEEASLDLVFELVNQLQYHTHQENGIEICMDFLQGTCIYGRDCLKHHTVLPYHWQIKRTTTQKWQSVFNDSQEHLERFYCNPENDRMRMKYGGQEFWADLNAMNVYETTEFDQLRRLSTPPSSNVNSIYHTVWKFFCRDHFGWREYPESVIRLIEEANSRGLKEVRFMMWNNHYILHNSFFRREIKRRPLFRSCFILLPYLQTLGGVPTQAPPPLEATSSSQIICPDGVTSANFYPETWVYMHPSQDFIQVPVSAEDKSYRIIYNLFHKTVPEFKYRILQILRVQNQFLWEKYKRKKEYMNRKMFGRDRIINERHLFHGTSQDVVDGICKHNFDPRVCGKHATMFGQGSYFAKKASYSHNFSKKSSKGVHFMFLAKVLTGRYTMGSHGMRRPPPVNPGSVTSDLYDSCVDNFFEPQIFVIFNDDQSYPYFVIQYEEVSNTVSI

| SMILES | IC50 |
| --- | --- |
| N#Cc1ccc(N2CCN(C(=O)C[C@H]3CC[C@H]([C@@H]4c5ccccc5CN4c4cn[nH]c(=O)c4C(F)(F)F)O3)CC2)nc1 (single isomer, unassigned) [Example 612 Isomer C] | ≥ 1000 nM |
| O=C(CCNC[C@H]1c2ccccc2CN1c1cn[nH]c(=O)c1C(F)(F)F)N1CCN(c2ccc(C(F)(F)F)cn2)CC1 [Example 630, (R)-5-(1-(((3-Oxo-3-(4-(5-(trifluoromethyl)pyridin-2-yl)piperazin-1-yl)propyl)amino)methyl)isoindolin-2-yl)-4-(trifluoromethyl)pyridazin-3(2H)-one] | ≥ 1000 nM |
| CN(CCOCCCN1CCN(c2ccc(C#N)cn2)CC1)c1cn[nH]c(=O)c1C(F)(F)F [Example 526, 6-[4-[3-(2-[Methyl[6-oxo-5-(trifluoromethyl)-1,6-dihydropyridazin-4-yl]amino]ethoxy)propyl]piperazin-1-yl]pyridine-3-carbonitrile] | 100 to 1000 nM |
| N#Cc1ccc(N2CCN(C(=O)c3ccc(OC[C@@H]4c5ccccc5CN4c4cn[nH]c(=O)c4C(F)(F)F)cc3)CC2)nc1 (single isomer, unassigned) [Example 35 Isomer A] | ≥ 1000 nM |
| O=c1[nH]ncc(N2Cc3ccccc3[C@H]2CO)c1C(F)(F)F [Example 247, (S)-5-(1-(Hydroxymethyl)isoindolin-2-yl)-4-(trifluoromethyl)pyridazin-3(2H)-one] | ≥ 1000 nM |
| O=C(C[C@H]1CC[C@H]([C@@H]2CCCN2c2cn[nH]c(=O)c2C(F)(F)F)O1)N1CCN(c2ncc(Cl)cn2)CC1 [Example 147D, 5-[(2S)-2-[(2R,5R)-5-[2-[4-(5-chloropyrimidin-2-yl)piperazin-1-yl]-2-oxoethyl]oxolan-2-yl]pyrrolidin-1-yl]-4-(trifluoromethyl)-2,3-dihydropyridazin-3-one] | < 100 nM |
| O=c1[nH]ncc(N2Cc3cc(OCc4cccnc4)cnc3C2)c1C(F)(F)F [Example 336, 5-(3-(Pyridin-3-ylmethoxy)-5,7-dihydro-6H-pyrrolo[3,4-b]pyridin-6-yl)-4-(trifluoromethyl)pyridazin-3(2H)-one] | < 100 nM |
| O=C(c1cncc(OC[C@H]2c3ccccc3CN2c2cn[nH]c(=O)c2C(F)(F)F)c1)N1CCN(c2ncc(C(F)(F)F)cn2)CC1 [Example 393, (R)-4-(Trifluoromethyl)-5-(1-(((5-(4-(5-(trifluoromethyl)pyrimidin-2-yl)piperazine-1-carbonyl)pyridin-3-yl)oxy)methyl)isoindolin-2-yl)pyridazin-3(2H)-one] | 100 to 1000 nM |
| CN(C)CCOc1cc2c(cc1F)CN(c1cn[nH]c(=O)c1C(F)(F)F)C2 [Example 14, 5-[5-[2-(dimethylamino)ethoxy]-6-fluoro-2,3-dihydro-1H-isoindol-2-yl]-4-(trifluoromethyl)-2,3-dihydropyridazin-3-one; formic acid] | < 100 nM |
| N#Cc1ccc(N2CCN(C(=O)CNCC[C@@H]3CCCN3c3cn[nH]c(=O)c3C(F)(F)F)CC2)nc1 [Example 89, 6-[4-[2-([2-[(2S)-1-[6-oxo-5-(trifluoromethyl)-1,6-dihydropyridazin-4-yl]pyrrolidin-2-yl]ethyl]amino)acetyl]piperazin-1-yl]pyridine-3-carbonitrile] | < 100 nM |
| N#Cc1ccc(N2CCN(C(=O)N3CC[C@H](OC[C@@H]4CCCN4c4cn[nH]c(=O)c4C(F)(F)F)C3)CC2)nc1 [Example 129B, 6-[4-[(3S)-3-[[(2S)-1-[6-oxo-5-(trifluoromethyl)-1,6-dihydropyridazin-4-yl]pyrrolidin-2-yl]methoxy]pyrrolidine-1-carbonyl]piperazin-1-yl]pyridine-3-carbonitrile] | < 100 nM |
| O=c1[nH]ncc(N2Cc3ccc(F)cc3C2)c1C(F)(F)F [Example 169, 5-(5-Fluoroisoindolin-2-yl)-4-(trifluoromethyl)pyridazin-3(2H)-one] | < 100 nM |
| CC(=O)N1CCC(COc2cc3c(cc2F)CN(c2cn[nH]c(=O)c2C(F)(F)F)C3)CC1 [Example 21, 5-[5-[(1-acetylpiperidin-4-yl)methoxy]-6-fluoro-2,3-dihydro-1H-isoindol-2-yl]-4-(trifluoromethyl)-2,3-dihydropyridazin-3-one] | < 100 nM |

Second part, the molecule after the results:

| IC50 | SMILES |
| --- | --- |
| 100 to 1000 nM | O=c1[nH]ncc(N2Cc3cnc(OC4CCNCC4)cc3C2)c1C(F)(F)F [Example 12, 5-[6-(piperidin-4-yloxy)-1H,2H,3H-pyrrolo[3,4-c]pyridin-2-yl]-4-(trifluoromethyl)-2,3-dihydropyridazin-3-one] |
| < 100 nM | N#Cc1ccc(N2CCN(C(=O)CCNC[C@@H]3c4ccccc4CN3c3cn[nH]c(=O)c3Cl)CC2)nc1 [Example 426, (S)-6-(4-(3-(((2-(5-Chloro-6-oxo-1,6-dihydropyridazin-4-yl)isoindolin-1-yl)methyl)amino)propanoyl)piperazin-1-yl)nicotinonitrile] |
| < 100 nM | O=c1[nH]ncc(N2Cc3cccc(Cl)c3C2)c1C(F)(F)F [Example 265, 5-(4-Chloroisoindolin-2-yl)-4-(trifluoromethyl)pyridazin-3(2H)-one] |
| < 100 nM | O=c1[nH]ncc(N2Cc3cccc(N4CCCC4)c3C2)c1C(F)(F)F [Example 284, 5-(4-(Pyrrolidin-1-yl)isoindolin-2-yl)-4-(trifluoromethyl)pyridazin-3(2H)-one] |
| 100 to 1000 nM | N#Cc1ccc(OC2CCC(NC(=O)CCOC[C@@H]3CCCN3c3cn[nH]c(=O)c3C(F)(F)F)CC2)nc1 (stereo partly drawn) [Example 99, N-(4-[(5-cyanopyridin-2-yl)oxy]cyclohexyl]-3-[[(2S)-1-[6-oxo-5-(trifluoromethyl)-1,6-dihydropyridazin-4-yl]pyrrolidin-2-yl]methoxy]propanamide] |
| < 100 nM | CC[C@@H](COCCC(=O)N1CCN(c2ncc(C(F)(F)F)cn2)CC1)Nc1cn[nH]c(=O)c1C(F)(F)F [Example 585, 5-[[(2S)-1-(3-Oxo-3-[4-[5-(trifluoromethyl)pyrimidin-2-yl]piperazin-1-yl]propoxy)butan-2-yl]amino]-4-(trifluoromethyl)-2,3-dihydropyridazin-3-one] |
| 100 to 1000 nM | C[C@H]1c2ccccc2CN1c1cn[nH]c(=O)c1C(F)(F)F [Example 250, (S)-5-(1-Methylisoindolin-2-yl)-4-(trifluoromethyl)pyridazin-3(2H)-one] |
| < 100 nM | N#Cc1ccc(N2CCN(C(=O)c3cccc(OCCOC[C@H]4CCN(c5cn[nH]c(=O)c5C(F)(F)F)C4)c3)CC2)nc1 [Example 471, (S)-6-(4-(3-(2-((1-(6-oxo-5-(trifluoromethyl)-1,6-dihydropyridazin-4-yl)pyrrolidin-3-yl)methoxy)ethoxy)benzoyl)piperazin-1-yl)nicotinonitrile] |
| < 100 nM | N#Cc1ccc(N2CCN(C(=O)C[C@H]3CC[C@@H]([C@H]4c5ccccc5CN4c4cn[nH]c(=O)c4C(F)(F)F)O3)CC2)nc1 (single isomer, unassigned) [Example 612 Isomer A] |
| ≥ 1000 nM | N#Cc1ccc(N2CCN(C(=O)CCNCCOc3cn[nH]c(=O)c3C(F)(F)F)CC2)nc1 [Example 502] |
| < 100 nM | O=C(C[C@H]1CC[C@H]([C@@H]2CCCN2c2cn[nH]c(=O)c2C(F)(F)F)O1)N1CCN(c2ncc(C(F)(F)F)cn2)CC1 [Example 149D, 5-[(2S)-2-[(2R,5R)-5-(2-oxo-2-[4-[5-(trifluoromethyl)pyrimidin-2-yl]piperazin-1-yl]ethyl)oxolan-2-yl]pyrrolidin-1-yl]-4-(trifluoromethyl)-2,3-dihydropyridazin-3-one] |
| ≥ 1000 nM | O=C(CCOC[C@@H](Nc1cn[nH]c(=O)c1C(F)(F)F)C1CCNCC1)N1CCN(c2ncc(C(F)(F)F)cn2)CC1 [Example 653, (S)-5-((2-(3-Oxo-3-(4-(5-(trifluoromethyl)pyrimidin-2-yl)piperazin-1-yl)propoxy)-1-(piperidin-4-yl)ethyl)amino)-4-(trifluoromethyl)pyridazin-3(2H)-one] |
| < 100 nM | C[C@@H](COCCC(=O)N1CCN(c2ncc(F)cn2)CC1)Nc1cn[nH]c(=O)c1C(F)(F)F [Example 679, (S)-5-((1-(3-(4-(5-Fluoropyrimidin-2-yl)piperazin-1-yl)-3-oxopropoxy)propan-2-yl)amino)-4-(trifluoromethyl)pyridazin-3(2H)-one] |
| < 100 nM | O=C(c1cncc(OC[C@@H]2c3ccccc3CN2c2cn[nH]c(=O)c2C(F)(F)F)c1)N1CCN(c2ncc(C(F)(F)F)cn2)CC1 [Example 392, (S)-4-(Trifluoromethyl)-5-(1-(((5-(4-(5-(trifluoromethyl)pyrimidin-2-yl)piperazine-1-carbonyl)pyridin-3-yl)oxy)methyl)isoindolin-2-yl)pyridazin-3(2H)-one] |
| 100 to 1000 nM | O=c1[nH]ncc(N2Cc3ccc(OCCO)nc3C2)c1C(F)(F)F [Example 312, 5-(2-(2-Hydroxyethoxy)-5,7-dihydro-6H-pyrrolo[3,4-b]pyridin-6-yl)-4-(trifluoromethyl)pyridazin-3(2H)-one] |
| < 100 nM | O=c1[nH]ncc(N2Cc3ccc(OC4CCNCC4)cc3C2)c1C(F)(F)F [Example 150, 5-[5-(Piperidin-4-yloxy)-2,3-dihydro-1H-isoindol-2-yl]-4-(trifluoromethyl)-2,3-dihydropyridazin-3-one] |
| 100 to 1000 nM | O=C(c1cncc(OC[C@H]2c3ccccc3CN2c2cn[nH]c(=O)c2C(F)(F)F)c1)N1CCN(c2ccc(C(F)(F)F)cn2)CC1 [Example 385, (R)-4-(Trifluoromethyl)-5-(1-(((5-(4-(5-(trifluoromethyl)pyridin-2-yl)piperazine-1-carbonyl)pyridin-3-yl)oxy)methyl)isoindolin-2-yl)pyridazin-3(2H)-one] |
| 100 to 1000 nM | O=c1[nH]ncc(N2Cc3cccc(OC4CCNC4)c3C2)c1Cl (stereo not shown) [Example 242, 4-Chloro-5-(4-(pyrrolidin-3-yloxy)isoindolin-2-yl)pyridazin-3(2H)-one] |
